Patent publication US20100222332A1, “PYRAZOLO-PYRAZINES DERIVATIVES USED AS G PROTEIN INHIBITORS” (Ipsen Pharma S.A.S., priority 2007, published 2010)
Where a name gives a salt, the structure may show the parent alone.

| melting point | SMILES |
| --- | --- |
| 214 to 219 °C | N[C@@H](CSSC[C@H](N)C(=O)N1CCn2nc(-c3ccccc3)cc2[C@@H]1CC1CCCCC1)C(=O)N1CCn2nc(-c3ccccc3)cc2[C@@H]1CC1CCCCC1 (as salt: hydrochloride) [Example 24, (2R)-3-({(2R)-2-amino-3-[(4S)-4-(cyclohexylmethyl)-2-phenyl-6,7-dihydropyrazolo[1,5-a]pyrazin-5(4H)-yl]-3-oxopropyl}dithio)-1-[(4S)-4-(cyclohexylmethyl)-2-phenyl-6,7-dihydropyrazolo[1,5-a]pyrazin-5(4H)-yl]-1-oxopropan-2-amine hydrochloride] |
| 212 to 217 °C | N[C@@H](CSSC[C@H](N)C(=O)N1CCn2nc(-c3ccccc3)cc2[C@H]1CC1CCCCC1)C(=O)N1CCn2nc(-c3ccccc3)cc2[C@H]1CC1CCCCC1 (as salt: hydrochloride) [Example 26, (1R)-3-({(2R)-2-amino-3-[(4R)-4-(cyclohexylmethyl)-2-phenyl-6,7-dihydropyrazolo[1,5-a]pyrazin-5(4H)-yl]-3-oxopropyl}dithio)-1-[(4R)-4-(cyclohexylmethyl)-2-phenyl-6,7-dihydropyrazolo[1,5-a]pyrazin-5(4H)-yl]-1-oxopropan-2-amine hydrochloride] |
| 117 to 120 °C | CC(C)(C)OC(=O)N[C@@H](C[Se][Se]C[C@H](NC(=O)OC(C)(C)C)C(=O)N1CCn2nc(-c3ccccc3)cc2C1CC1CCCCC1)C(=O)N1CCn2nc(-c3ccccc3)cc2C1CC1CCCCC1 (mixture of isomers) |
| 217 to 220 °C (dec.) | N[C@@H](C[Se][Se]C[C@H](N)C(=O)N1CCn2nc(-c3ccccc3)cc2C1CC1CCCCC1)C(=O)N1CCn2nc(-c3ccccc3)cc2C1CC1CCCCC1 (mixture of isomers) (as salt: hydrochloride) |
| 218 °C (dec.) | N[C@@H](CSSC[C@H](N)C(=O)N1CCn2nc(-c3ccccc3)cc2C1CC1CCCCC1)C(=O)N1CCn2nc(-c3ccccc3)cc2C1CC1CCCCC1 (mixture of isomers) (as salt: hydrochloride) [Example 12, (2R)-3-({(2R)-2-amino-3-[(4RS)-4-(cyclohexylmethyl)-2-phenyl-6,7-dihydropyrazolo[1,5-a]pyrazin-5(4H)-yl]-3-oxopropyl}dithio)-1-[(4RS)-4-(cyclohexylmethyl)-2-phenyl-6,7-dihydropyrazolo[1,5-a]pyrazin-5(4H)-yl]-1-oxopropan-2-amine hydrochloride] |
| 208 °C (dec.) | N[C@@H](CSSC[C@H](N)C(=O)N1CCn2nc(-c3ccccc3)cc2C1CCc1ccccc1)C(=O)N1CCn2nc(-c3ccccc3)cc2C1CCc1ccccc1 (mixture of isomers) (as salt: hydrochloride) [Example 13, (2R)-3-({(2R)-2-amino-3-oxo-3-[(4RS)-2-phenyl-4-(2-phenylethyl)-6,7-dihydropyrazolo[1,5-a]pyrazin-5(4H)-yl]propyl}dithio)-1-oxo-1-[(4RS)-2-phenyl-4-(2-phenylethyl)-6,7-dihydropyrazolo[1,5-a]pyrazin-5(4H)-yl]propan-2-amine hydrochloride] |
| 227 °C (dec.) | N[C@@H](CSSC[C@H](N)C(=O)N1CCn2nc(-c3ccncc3)cc2C1CCc1ccccc1)C(=O)N1CCn2nc(-c3ccncc3)cc2C1CCc1ccccc1 (mixture of isomers) (as salt: hydrochloride) [Example 14, (2R)-3-({(2R)-2-amino-3-oxo-3-[(4RS)-4-(2-phenylethyl)-2-pyridin-4-yl-6,7-dihydropyrazolo[1,5-a]pyrazin-5(4H)-yl]propyl}dithio)-1-oxo-1-[(4RS)-4-(2-phenylethyl)-2-pyridin-4-yl-6,7-dihydropyrazolo[1,5-a]pyrazin-5(4H)-yl]propan-2-amine hydrochloride] |
| 223 °C (dec.) | N[C@@H](CSSC[C@H](N)C(=O)N1CCn2nc(-c3cccnc3)cc2C1CCc1ccccc1)C(=O)N1CCn2nc(-c3cccnc3)cc2C1CCc1ccccc1 (mixture of isomers) (as salt: hydrochloride) [Example 15, (2R)-3-({(2R)-2-amino-3-oxo-3-[(4RS)-4-(2-phenylethyl)-2-pyridin-3-yl-6,7-dihydropyrazolo[1,5-a]pyrazin-5(4H)-yl]propyl}dithio)-1-oxo-1-[(4RS)-4-(2-phenylethyl)-2-pyridin-3-yl-6,7-dihydropyrazolo[1,5-a]pyrazin-5(4H)-yl]propan-2-amine hydrochloride] |
| 221 °C (dec.) | N[C@@H](CSSC[C@H](N)C(=O)N1CCn2nc(-c3ccc4c(c3)OCO4)cc2C1CCc1ccccc1)C(=O)N1CCn2nc(-c3ccc4c(c3)OCO4)cc2C1CCc1ccccc1 (mixture of isomers) (as salt: hydrochloride) [Example 16, (2R)-3-({(2R)-2-amino-3-[(4RS)-2-(1,3-benzodioxol-5-yl)-4-(2-phenylethyl)-6,7-dihydropyrazolo[1,5-a]pyrazin-5(4H)-yl]-3-oxopropyl}dithio)-1-[(4RS)-2-(1,3-benzodioxol-5-yl)-4-(2-phenylethyl)-6,7-dihydropyrazolo[1,5-a]pyrazin-5(4H)-yl]-1-oxopropan-2-amine hydrochloride] |
| 211 °C (dec.) | COc1cc(-c2cc3n(n2)CCN(C(=O)[C@@H](N)CSSC[C@H](N)C(=O)N2CCn4nc(-c5cc(OC)c(OC)c(OC)c5)cc4C2CCc2ccccc2)C3CCc2ccccc2)cc(OC)c1OC (mixture of isomers) (as salt: hydrochloride) [Example 17, (2R)-3-({(2R)-2-amino-3-oxo-3-[(4RS)-4-(2-phenylethyl)-2-(3,4,5-trimethoxyphenyl)-6,7-dihydropyrazolo[1,5-a]pyrazin-5(4H)-yl]propyl}dithio)-1-oxo-1-[(4RS)-4-(2-phenylethyl)-2-(3,4,5-trimethoxyphenyl)-6,7-dihydropyrazolo[1,5-a]pyrazin-5(4H)-yl]propan-2-amine hydrochloride] |
| 218 °C (dec.) | N[C@@H](CSSC[C@H](N)C(=O)N1CCn2nc(-c3cccs3)cc2C1CCc1ccccc1)C(=O)N1CCn2nc(-c3cccs3)cc2C1CCc1ccccc1 (mixture of isomers) (as salt: hydrochloride) [Example 18, (2R)-3-({(2R)-2-amino-3-oxo-3-[(4RS)-4-(2-phenylethyl)-2-(2-thienyl)-6,7-dihydropyrazolo[1,5-a]pyrazin-5(4H)-yl]propyl}dithio)-1-oxo-1-[(4RS)-4-(2-phenylethyl)-2-(2-thienyl)-6,7-dihydropyrazolo[1,5-a]pyrazin-5(4H)-yl]propan-2-amine hydrochloride] |
| 207 °C (dec.) | N[C@@H](CSSC[C@H](N)C(=O)N1CCn2nc(-c3ccco3)cc2C1CCc1ccccc1)C(=O)N1CCn2nc(-c3ccco3)cc2C1CCc1ccccc1 (mixture of isomers) (as salt: hydrochloride) [Example 19, (2R)-3-({(2R)-2-amino-3-[(4RS)-2-(2-furyl)-4-(2-phenylethyl)-6,7-dihydropyrazolo[1,5-a]pyrazin-5(4H)-yl]-3-oxopropyl}dithio)-1-[(4RS)-2-(2-furyl)-4-(2-phenylethyl)-6,7-dihydropyrazolo[1,5-a]pyrazin-5(4H)-yl]-1-oxopropan-2-amine hydrochloride] |
| 199 to 204 °C (dec.) | CCCCCC1c2cc(-c3ccccc3)nn2CCN1C(=O)[C@@H](N)CSSC[C@H](N)C(=O)N1CCn2nc(-c3ccccc3)cc2C1CCCCC (mixture of isomers) (as salt: hydrochloride) [Example 20, (2R)-3-({(2R)-2-amino-3-oxo-3-[(4RS)-4-pentyl-2-phenyl-6,7-dihydropyrazolo[1,5-a]pyrazin-5(4H)-yl]propyl}dithio)-1-oxo-1-[(4RS)-4-pentyl-2-phenyl-6,7-dihydropyrazolo[1,5-a]pyrazin-5(4H)-yl]propan-2-amine hydrochloride] |
| 210 to 215 °C (dec.) | CCCCC1c2cc(-c3ccccc3)nn2CCN1C(=O)[C@@H](N)CSSC[C@H](N)C(=O)N1CCn2nc(-c3ccccc3)cc2C1CCCC (mixture of isomers) (as salt: hydrochloride) [Example 21, (2R)-3-({(2R)-2-amino-3-[(4RS)-4-butyl-2-phenyl-6,7-dihydropyrazolo[1,5-a]pyrazin-5(4H)-yl]-3-oxopropyl}dithio)-1-[(4RS)-4-butyl-2-phenyl-6,7-dihydropyrazolo[1,5-a]pyrazin-5(4H)-yl]-1-oxopropan-2-amine hydrochloride] |
| 198 to 202 °C | N[C@@H](CSSC[C@H](N)C(=O)N1CCn2nc(-c3ccc(Cl)cc3Cl)cc2C1CCc1ccccc1)C(=O)N1CCn2nc(-c3ccc(Cl)cc3Cl)cc2C1CCc1ccccc1 (mixture of isomers) (as salt: hydrochloride) [Example 22, (2R)-3-({(2R)-2-amino-3-[(4RS)-2-(2,4-dichlorophenyl)-4-(2-phenylethyl)-6,7-dihydropyrazolo[1,5-a]pyrazin-5(4H)-yl]-3-oxopropyl}dithio)-1-[(4RS)-2-(2,4-dichlorophenyl)-4-(2-phenylethyl)-6,7-dihydropyrazolo[1,5-a]pyrazin-5(4H)-yl]-1-oxopropan-2-amine hydrochloride] |
| 198 to 208 °C | N[C@@H](CSSC[C@H](N)C(=O)N1CCCn2nc(-c3ccccc3)cc2C1CC1CCCCC1)C(=O)N1CCCn2nc(-c3ccccc3)cc2C1CC1CCCCC1 (mixture of isomers) (as salt: hydrochloride) [Example 28, {(1R)-1-[({(2R)-2-amino-3-[(4RS)-4-(cyclohexylmethyl)-2-phenyl-7,8-dihydro-4H-pyrazolo[1,5-a][1,4]diazepin-5(6H)-yl]-3-oxopropyl}dithio)methyl]-2-[(4RS)-4-(cyclohexylmethyl)-2-phenyl-7,8-dihydro-4H-pyrazolo[1,5-a][1,4]diazepin-5(6H)-yl]-2-oxoethyl}amine hydrochloride] |
| 232 to 234 °C (dec.) | N[C@@H](CSSC[C@H](N)C(=O)N1CCn2nc(-c3ccccn3)cc2C1CCc1ccccc1)C(=O)N1CCn2nc(-c3ccccn3)cc2C1CCc1ccccc1 (mixture of isomers) (as salt: hydrochloride) [Example 32, (2R)-3-({(2R)-2-amino-3-oxo-3-[(4RS)-4-(2-phenylethyl)-2-pyridin-2-yl-6,7-dihydropyrazolo[1,5-a]pyrazin-5(4H)-yl]propyl}dithio)-1-oxo-1-[(4RS)-4-(2-phenylethyl)-2-pyridin-2-yl-6,7-dihydropyrazolo[1,5-a]pyrazin-5(4H)-yl]propan-2-amine hydrochloride] |
